One series deals with T1, PPARγ-RXRα heterodimer (Homo sapiens, UniProt P37231).
T1 construct: expressed in transfected cells; host or cells: CHO-K1
T1 sequence (P37231 1-477 isoform P37231-2): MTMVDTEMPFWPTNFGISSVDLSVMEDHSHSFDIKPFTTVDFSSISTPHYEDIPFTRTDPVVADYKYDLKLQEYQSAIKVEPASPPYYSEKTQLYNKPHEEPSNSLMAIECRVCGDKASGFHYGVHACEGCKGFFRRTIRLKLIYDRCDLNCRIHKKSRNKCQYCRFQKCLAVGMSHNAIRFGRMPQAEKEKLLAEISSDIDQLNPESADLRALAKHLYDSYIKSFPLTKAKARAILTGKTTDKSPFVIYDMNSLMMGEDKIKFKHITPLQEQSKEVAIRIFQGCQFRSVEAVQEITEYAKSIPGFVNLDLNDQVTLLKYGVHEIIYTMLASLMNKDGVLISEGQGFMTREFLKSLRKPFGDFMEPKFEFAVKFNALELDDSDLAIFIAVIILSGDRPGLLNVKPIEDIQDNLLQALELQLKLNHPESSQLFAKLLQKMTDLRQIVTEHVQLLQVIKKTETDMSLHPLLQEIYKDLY
T1 sequence (P19793 1-462 partner): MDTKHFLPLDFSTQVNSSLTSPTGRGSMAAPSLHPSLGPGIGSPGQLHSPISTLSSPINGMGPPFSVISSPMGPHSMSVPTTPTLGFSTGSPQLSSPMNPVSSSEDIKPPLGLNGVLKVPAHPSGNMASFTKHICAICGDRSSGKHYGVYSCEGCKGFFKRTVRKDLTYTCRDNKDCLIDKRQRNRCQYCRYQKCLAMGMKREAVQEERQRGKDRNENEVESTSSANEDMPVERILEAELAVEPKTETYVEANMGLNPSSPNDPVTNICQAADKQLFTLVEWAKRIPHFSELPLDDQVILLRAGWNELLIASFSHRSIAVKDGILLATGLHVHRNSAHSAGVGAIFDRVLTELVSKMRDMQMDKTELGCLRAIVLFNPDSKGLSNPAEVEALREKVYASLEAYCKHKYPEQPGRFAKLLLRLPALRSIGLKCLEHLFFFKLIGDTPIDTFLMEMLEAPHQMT
The series can be described thus: PPARγ-RXRα heterodimer ligand activity, luciferase reporter in PPARγ:RXRα:4ERPP/CHO-K1 cells (Test Example 3). Type of series: cell-based. Conditions: concentration for 50% of the maximum fold induction of luciferase activity; 48 hours, CHO-K1 cells. Summed up:
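CHO-K1 cells stably carrying hPPARγ/RXR expression plasmid and 4ERPP-TK luciferase reporter, treated 48 h at 37 °C in HAM F12 with 0.1% fatty-acid-free BSA. Luciferase fold induction taken over untreated cells; EC50 at 50% of maximal fold induction.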
In general terms: Reporter assays use an easily measured gene product as a stand-in for the process of interest.

SMILES strings stand for the structures.

Broadly, the EC50 is the midpoint of the concentration-response curve. A word on the melting point: it is the temperature of the solid-liquid transition. For the molecule `COc1cc(COc2ncccc2CC(=O)O)ccc1OCc1nc(-c2ccccc2)oc1C` [Example 91, 2-[2-[3-methoxy-4-[(2-phenyl-5-methyl-4-oxazolyl)methoxy]benzyloxy]-3-pyridyl]acetic acid], the melting point was in the range of 145 to 146 °C. The molecule further came in with an EC50 on PPARγ-RXRα heterodimer of 1.7 nM.

The molecule `Cc1oc(-c2ccco2)nc1COc1ccc(COc2ncccc2CC(=O)O)cc1` [Example 92, 2-[2-[4-[[2-(2-furyl)-5-methyl-4-oxazolyl]methoxy]benzyloxy]-3-pyridyl]acetic acid] came in with a melting point of 151 to 152 °C. Further, it took 370 nM to reach a half-maximal effect at PPARγ-RXRα heterodimer (EC50).

As for `Cc1sc(-c2ccccc2)nc1COc1ccc(COc2ncccc2CC(=O)O)cc1` [Example 93, 2-[2-[4-[(5-methyl-2-phenyl-4-thiazolyl)methoxy]benzyloxy]-3-pyridyl]acetic acid], the melting point lay within 128 to 129 °C. In addition, the response on PPARγ-RXRα heterodimer was half-maximal at 390 nM (EC50).

Regarding `Cc1oc(-c2ccccc2)nc1CCc1ccc(COc2ccccc2CC(=O)O)cc1` [Example 97, 2-[2-[4-[2-(5-methyl-2-phenyl-4-oxazolyl)ethyl]benzyloxy]phenyl]acetic acid], the melting point lay in the range of 130 to 131 °C. Also, the EC50 on PPARγ-RXRα heterodimer came to 26 nM.

On to `Cc1oc(-c2ccccc2)nc1CCc1noc(COc2ccccc2CC(=O)O)n1` [Example 107, 2-[2-[[3-[2-(5-methyl-2-phenyl-4-oxazolyl)ethyl]-1,2,4-oxadiazol-5-yl]methoxy]phenyl]acetic acid], for which the melting point fell in the range of 120 to 121 °C. The half-maximal effective concentration (EC50) at PPARγ-RXRα heterodimer came out at 87 nM.

Turning to `Cc1ccc(CC(=O)O)c(OCc2ccc(OCc3nc(-c4ccccc4)oc3C)cc2)n1` [Example 110, 2-[6-methyl-2-[4-[(5-methyl-2-phenyl-4-oxazolyl)methoxy]benzyloxy]-3-pyridyl]acetic acid], the melting point was 138 to 139 °C. This molecule also yielded an EC50 at PPARγ-RXRα heterodimer of 42 nM.

In the case of `Cc1oc(-c2ccccc2)nc1COc1cc(COc2ncccc2CC(=O)O)on1` [Example 129, 2-[2-[[3-[(5-methyl-2-phenyl-4-oxazolyl)methoxy]-5-isoxazolyl]methoxy]-3-pyridyl]acetic acid], the melting point fell in the range of 129 to 130 °C. Besides, the half-maximal effective concentration (EC50) on PPARγ-RXRα heterodimer was determined as 59 nM.

`Cc1oc(-c2ccc3ccccc3c2)nc1COc1ccc(COc2ncccc2CC(=O)O)cc1` [Example 130, 2-[2-[4-[5-methyl-2-(2-naphthyl)-4-oxazolylmethoxy]benzyloxy]-3-pyridyl]acetic acid] had a melting point of 155 to 156 °C. In addition, a half-maximal response at PPARγ-RXRα heterodimer (EC50) required 11 nM.

Values taken from patent US7238716B2, “Alkanoic acid derivatives process for their production and use thereof” (Takeda Pharmaceuticals Company Limited, priority 2000, dated 2007).
